Data on six compounds can be found in patent US4578393A, “Dihydroisoquinoline derivatives” (Beecham Group p.l.c., priority 1983, dated 1986).

Assay [1] has as its system adjuvant arthritis in the rat. In words: Adjuvant arthritis test in the rat. The format is in vivo. The following applies: read-out: ACTIVE DOSE. The text has this:
The test is as described by Newbould, Brit. J. Pharmacol., 1963, 21, 127-136. Compounds were active at the doses shown below.

Another assay addresses T1, 5-Lipoxygenase enzyme (Rattus norvegicus, UniProt P12527).
T1 construct: 5-Lipoxygenase enzyme was prepared as a 10,000 g supernatant from RBL-1 cells; endogenous in cells; host or cells: RBL-1 cells (10,000 g supernatant)
T1 sequence (P12527 1-673): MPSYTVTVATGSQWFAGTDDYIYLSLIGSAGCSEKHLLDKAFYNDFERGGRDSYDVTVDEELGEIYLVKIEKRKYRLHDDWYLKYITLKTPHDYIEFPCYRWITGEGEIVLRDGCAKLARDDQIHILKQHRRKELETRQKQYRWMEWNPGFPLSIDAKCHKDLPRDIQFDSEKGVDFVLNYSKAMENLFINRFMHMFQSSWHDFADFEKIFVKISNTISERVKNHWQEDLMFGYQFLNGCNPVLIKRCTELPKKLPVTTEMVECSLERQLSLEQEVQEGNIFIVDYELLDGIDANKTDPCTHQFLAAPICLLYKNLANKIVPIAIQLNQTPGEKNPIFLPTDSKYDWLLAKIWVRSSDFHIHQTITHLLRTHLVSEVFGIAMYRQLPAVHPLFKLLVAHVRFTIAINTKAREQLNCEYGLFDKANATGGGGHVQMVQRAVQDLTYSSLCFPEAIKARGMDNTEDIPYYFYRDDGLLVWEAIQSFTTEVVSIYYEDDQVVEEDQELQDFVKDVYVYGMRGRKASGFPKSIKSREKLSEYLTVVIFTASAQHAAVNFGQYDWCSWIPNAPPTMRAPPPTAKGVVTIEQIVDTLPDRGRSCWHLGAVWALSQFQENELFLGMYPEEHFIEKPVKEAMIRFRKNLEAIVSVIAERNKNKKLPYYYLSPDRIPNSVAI
In words: Inhibition of 5-lipoxygenase activity (10,000 g supernatant from RBL-1 cells). Type of assay: biochemical. The following applies: RBL-1 supernatant, 6.3 μm arachidonic acid, 29° C. Here is the method: 5-Lipoxygenase enzyme was prepared as a 10,000 g supernatant from RBL-1 cells by the method of Jakschik [Jakschik, B. A., F. F. Sun, L. M. Lee, and M. M. Steinhoff, 1980, Biochem. Biophys. Res. Comm. 95, 103]. The 10,000 g supernatant was diluted with homogenization buffer to the equivalent of 1.5-2.5×10^7 cells. ml^-1 and made 2 mM with respect to CaCl2. Aliquots of 0.5 ml were then dispensed into tubes, and incubated at 29° C. with 5 μl ethanol or compound in ethanol at the desired concentration for 2 min. Then [1-^14 C] arachidonic acid was added in buffer to give a final concentration of 6.3 μm and 0.2 μCi per incubation, and the reaction continued at 29° C. for 2 min. The reaction was terminated by adding 1 ml of acetone and cooling on ice, 0.5 ml of ice-cold saline and 10 μl of 2N formic acid were added, and the mixture was extracted with 2×2 ml of chloroform. The extract was stored under N2 at -20° C. until analysis by chromatography. Activity was measured as the percentage of total radioactivity found in 5-HETE and 5,12-diHETE, and inhibition calculated as the decrease in formation of the sum of these two species in compound-treated incubates relative to control incubates.
(P values as assessed by the students `t` test).

Structures can show the parent of a compound that is named as a salt. Where two headings read alike, the source gives them in different places.

Turning to `CN(C)C1=NC(c2ccccc2Cl)c2ccccc2C1.Cl` (stereo not shown) [Example 1, 1-(2-Chlorophenyl)-3-dimethylamino-1,4-dihydroisoquinoline hydrochloride], the minimal effective dose in assay [1] (po) turned out to be 25 mg/kg. For the same compound, the “inhibition of 5-lipoxygenase (formation of 5-HETE and 5,12-diHETE)” value on 5-Lipoxygenase enzyme (concentration of 5 μm) stood at 15%; against 5-Lipoxygenase enzyme (concentration of 50 μm), 50%.
Regarding `CN(C)C1=NC(c2ccc(Cl)cc2)c2ccccc2C1.Cl.O` (stereo not shown) [Example 2, 1-(4-Chlorophenyl)-3-dimethylamino-1,4-dihydroisoquinoline hydrochloride hydrate], the minimal effective dose in assay [1] (po) was determined as 12.5 mg/kg.
With `CN(C)C1=NC(c2ccccc2F)c2ccccc2C1` (stereo not shown) [Example 10, 1-(2-Fluorophenyl)-1,4-dihydro-3-dimethylaminoisoquinoline hydrochloride], in assay [1] (po), the minimal effective dose was 25 mg/kg.
On to `Br.CN(C)C1=NC(c2ccc(Cl)cc2)c2cc(O)c(O)cc2C1` (stereo not shown) [Example 30, 1-(4-Chlorophenyl)-6,7-dihydroxy-3-dimethylamino-1,4-dihydroisoquinoline hydrobromide], for which the minimal effective dose in assay [1] (ip) worked out at 12.5 mg/kg. Besides, the “inhibition of 5-lipoxygenase (formation of 5-HETE and 5,12-diHETE)” value against 5-Lipoxygenase enzyme (concentration of 5 μm) is recorded as 37%; at 5-Lipoxygenase enzyme (concentration of 50 μm) it was 92%.
As for `Br.CN(C)C1=NC(c2ccc(Cl)cc2)c2c(O)cccc2C1.O` (stereo not shown) [Example 31, 1-(4-Chlorophenyl)-3-dimethylamino-8-hydroxy-1,4-dihydroisoquinoline hydrobromide hydrate], the minimal effective dose in assay [1] (ip) was 20 mg/kg.
`Br.CN(C)C1=NC(c2ccc(Cl)cc2)c2ccc(O)cc2C1` (stereo not shown) [Example 32, 1-(4-Chlorophenyl)-3-dimethylamino-6-hydroxy-1,4-dihydroisoquinoline hydrobromide]: the minimal effective dose in assay [1] (ip) stood at 25 mg/kg.
